From ChEMBL document CHEMBL1671649, “Mutations in three distinct loci cause resistance to peptide deformylase inhibitors in Bacillus subtilis” (2009)
≈ marks a conversion by molar mass, not a printed value.

Assays:
Format in all cases: functional
[1] = system: Bacillus subtilis; test: Antimicrobial activity against Bacillus subtilis harboring fmt with deletion mutation at base pair 745 after 17 hrs by microtiter broth dilution method
[2] = system: Bacillus subtilis; test: Antimicrobial activity against Bacillus subtilis harboring fmt P113L mutant after 17 hrs by microtiter broth dilution method
[3] = system: Bacillus subtilis; test: Antimicrobial activity against Bacillus subtilis harboring fmt S110P mutant after 17 hrs by microtiter broth dilution method
[4] = system: Bacillus subtilis; test: Antimicrobial activity against Bacillus subtilis harboring fmt H108R mutant after 17 hrs by microtiter broth dilution method
[5] = system: Bacillus subtilis; test: Antimicrobial activity against Bacillus subtilis harboring folD S71Q, S72Q and L73P mutant after 17 hrs by microtiter broth dilution method
[6] = system: Bacillus subtilis; test: Antimicrobial activity against Bacillus subtilis harboring glyA with deletion mutation of base pair 661 to 663 after 17 hrs by microtiter broth dilution method
[7] = system: Bacillus subtilis; test: Antimicrobial activity against Bacillus subtilis harboring fmt P120L mutant after 17 hrs by microtiter broth dilution method
[8] = system: Bacillus subtilis; test: Antimicrobial activity against Bacillus subtilis harboring folD with deletion mutation of base pair 507 to 518 after 17 hrs by microtiter broth dilution method
[9] = system: Bacillus subtilis; test: Antimicrobial activity against Bacillus subtilis harboring fmt with base pair insertion at position 745 after 17 hrs by microtiter broth dilution method
[10] = system: Bacillus subtilis; test: Antimicrobial activity against Bacillus subtilis harboring fmt AGA to TGA and R3stop mutation after 17 hrs by microtiter broth dilution method
[11] = system: Bacillus subtilis; test: Antimicrobial activity against Bacillus subtilis harboring fmt R116C mutant after 17 hrs by microtiter broth dilution method
[12] = system: Bacillus subtilis; test: Antimicrobial activity against Bacillus subtilis harboring folD T184M mutant after 17 hrs by microtiter broth dilution method
[13] = system: Bacillus subtilis; test: Antimicrobial activity against Bacillus subtilis harboring fmt R116P mutant after 17 hrs by microtiter broth dilution method
[14] = system: Bacillus subtilis; test: Antimicrobial activity against Bacillus subtilis harboring fmt with 295 to 639 base pair deletion mutation after 17 hrs by microtiter broth dilution method
[15] = system: Bacillus subtilis; test: Antimicrobial activity against Bacillus subtilis harboring folD E17Q mutant after 17 hrs by microtiter broth dilution method
[16] = system: Bacillus subtilis; test: Antimicrobial activity against Bacillus subtilis harboring fmt G118D mutant after 17 hrs by microtiter broth dilution method
[17] = system: Bacillus subtilis; test: Antimicrobial activity against Bacillus subtilis harboring fmt with deletion mutation at base pair 119 after 17 hrs by microtiter broth dilution method

CCCCC[C@H](CC(=O)NO)C(=O)N[C@H](C(=O)N1CCC[C@H]1CO)C(C)C [ACTINONIN]
MIC [1]: 96 µg/mL (≈ 249 µM)
MIC [2]: 96 µg/mL (≈ 249 µM)
MIC [3]: > 512 µg/mL
MIC [4]: > 512 µg/mL
MIC [5]: > 512 µg/mL
MIC [6]: > 512 µg/mL
MIC [7]: > 512 µg/mL
MIC [8]: > 512 µg/mL
MIC [9]: 96 µg/mL (≈ 249 µM)
MIC [10]: 192 µg/mL (≈ 498 µM)
MIC [11]: 48 µg/mL (≈ 125 µM)
MIC [12]: 192 µg/mL (≈ 498 µM)
MIC [13]: > 512 µg/mL
MIC [14]: > 512 µg/mL
MIC [15]: 192 µg/mL (≈ 498 µM)
MIC [16]: > 512 µg/mL
MIC [17]: 192 µg/mL (≈ 498 µM)
